Data: US20250243196A1, “CITRON KINASE INHIBITORS” (The Cleveland Clinic Foundation, priority 2021, published 2025)

Columns and labels:
Assay type in all cases: biochemical
[1] = target: Citron kinase (Homo sapiens (Human), UniProt O14578); test: Radiometric citron kinase assay (Eurofins Cat #16-040KP); settings: mean of at least two independent assays; read-out: Radiometric CitK IC50
Procedure, shortened: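 Radiometric KinaseProfiler format: test compound incubated with kinase, substrate, cofactors and radiolabelled ATP; unreacted ATP washed away and radiolabelled phosphate incorporated into substrate measured. IC50 derived from inhibition of phosphorylation. Values are means of at least two independent assays.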

[2] = target: ARK5(h) (Homo sapiens (Human), UniProt O60285); test: KinaseProfiler panel; set-up: dose or concentration left out as unconfirmed; settings: activity remaining
[3] = target: CaMKI(h) (Homo sapiens (Human), UniProt Q14012); test: KinaseProfiler panel; set-up: dose or concentration left out as unconfirmed; settings: activity remaining
[4] = target: CaMKIIα(h) (Homo sapiens (Human), UniProt Q9UQM7); test: KinaseProfiler panel; settings: activity remaining
[5] = target: Cdc7/cyclinB1(h) (Homo sapiens, UniProt O00311); test: KinaseProfiler panel; set-up: dose or concentration left out as unconfirmed; settings: activity remaining
[6] = target: CDK12/cyclinK(h) (Homo sapiens (Human), UniProt Q9NYV4); test: KinaseProfiler panel; set-up: dose or concentration left out as unconfirmed; settings: activity remaining
[7] = target: CLK3(h) (Homo sapiens (Human), UniProt P49761); test: KinaseProfiler panel; set-up: dose or concentration left out as unconfirmed; settings: activity remaining
[8] = target: CSK(h) (Homo sapiens (Human), UniProt P41240); test: KinaseProfiler panel; set-up: dose or concentration left out as unconfirmed; settings: activity remaining
[9] = target: DCAMKL3(h) (Homo sapiens (Human), UniProt Q9C098); test: KinaseProfiler panel; set-up: dose or concentration left out as unconfirmed; settings: activity remaining
[10] = target: eEF-2K(h) (Homo sapiens (Human), UniProt O00418); test: KinaseProfiler panel; set-up: dose or concentration left out as unconfirmed; settings: activity remaining
[11] = target: EphA2(h) (Homo sapiens (Human), UniProt P29317); test: KinaseProfiler panel; set-up: dose or concentration left out as unconfirmed; settings: activity remaining
[12] = target: Fgr(h) (Homo sapiens (Human), UniProt P09769); test: KinaseProfiler panel; set-up: dose or concentration left out as unconfirmed; settings: activity remaining
[13] = target: Flt3(h) (Homo sapiens (Human), UniProt P36888); test: KinaseProfiler panel; set-up: dose or concentration left out as unconfirmed; settings: activity remaining
[14] = target: HRI(h) (Homo sapiens (Human), UniProt Q9BQI3); test: KinaseProfiler panel; set-up: dose or concentration left out as unconfirmed; settings: activity remaining
[15] = target: MST3(h) (Homo sapiens (Human), UniProt Q9Y6E0); test: KinaseProfiler panel; set-up: dose or concentration left out as unconfirmed; settings: activity remaining
[16] = target: PI3KC2g(h) (Homo sapiens (Human), UniProt O75747); test: KinaseProfiler panel; settings: activity remaining
[17] = target: PKBγ(h) (Homo sapiens (Human), UniProt Q9Y243); test: KinaseProfiler panel; set-up: dose or concentration left out as unconfirmed; settings: activity remaining
[18] = target: SAPK4(h) (Homo sapiens (Human), UniProt O15264); test: KinaseProfiler panel; set-up: dose or concentration left out as unconfirmed; settings: activity remaining
[19] = target: SIK(h) (Homo sapiens (Human), UniProt P57059); test: KinaseProfiler panel; set-up: dose or concentration left out as unconfirmed; settings: activity remaining
[20] = target: STK32B(h) (Homo sapiens (Human), UniProt Q9NY57); test: KinaseProfiler panel; set-up: dose or concentration left out as unconfirmed; settings: activity remaining
[21] = target: TAO3(h) (Homo sapiens (Human), UniProt Q9H2K8); test: KinaseProfiler panel; set-up: dose or concentration left out as unconfirmed; settings: activity remaining
[22] = target: TBK1(h) (Homo sapiens (Human), UniProt Q9UHD2); test: KinaseProfiler panel; settings: activity remaining
[23] = target: Wee1B(h) (Homo sapiens (Human), UniProt P0C1S8); test: KinaseProfiler panel; set-up: dose or concentration left out as unconfirmed; settings: activity remaining
[24] = target: ZIPK(h) (Homo sapiens (Human), UniProt O43293); test: KinaseProfiler panel; set-up: dose or concentration left out as unconfirmed; settings: activity remaining

Sequence of MST3(h) (Q9Y6E0 whole entry): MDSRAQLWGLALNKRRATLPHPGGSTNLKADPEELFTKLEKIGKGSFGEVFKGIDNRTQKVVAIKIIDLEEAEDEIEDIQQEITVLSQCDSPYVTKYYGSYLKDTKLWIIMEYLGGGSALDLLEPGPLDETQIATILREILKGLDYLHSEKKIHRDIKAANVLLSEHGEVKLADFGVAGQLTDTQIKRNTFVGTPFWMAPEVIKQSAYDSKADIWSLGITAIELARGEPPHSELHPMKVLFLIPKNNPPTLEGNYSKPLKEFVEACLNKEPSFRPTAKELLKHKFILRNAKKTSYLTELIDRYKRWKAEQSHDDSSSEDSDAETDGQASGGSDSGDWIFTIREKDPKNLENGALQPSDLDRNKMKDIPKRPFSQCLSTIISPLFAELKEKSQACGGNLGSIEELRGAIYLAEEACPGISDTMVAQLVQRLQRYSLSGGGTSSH
Sequence of PI3KC2g(h) (O75747 whole entry): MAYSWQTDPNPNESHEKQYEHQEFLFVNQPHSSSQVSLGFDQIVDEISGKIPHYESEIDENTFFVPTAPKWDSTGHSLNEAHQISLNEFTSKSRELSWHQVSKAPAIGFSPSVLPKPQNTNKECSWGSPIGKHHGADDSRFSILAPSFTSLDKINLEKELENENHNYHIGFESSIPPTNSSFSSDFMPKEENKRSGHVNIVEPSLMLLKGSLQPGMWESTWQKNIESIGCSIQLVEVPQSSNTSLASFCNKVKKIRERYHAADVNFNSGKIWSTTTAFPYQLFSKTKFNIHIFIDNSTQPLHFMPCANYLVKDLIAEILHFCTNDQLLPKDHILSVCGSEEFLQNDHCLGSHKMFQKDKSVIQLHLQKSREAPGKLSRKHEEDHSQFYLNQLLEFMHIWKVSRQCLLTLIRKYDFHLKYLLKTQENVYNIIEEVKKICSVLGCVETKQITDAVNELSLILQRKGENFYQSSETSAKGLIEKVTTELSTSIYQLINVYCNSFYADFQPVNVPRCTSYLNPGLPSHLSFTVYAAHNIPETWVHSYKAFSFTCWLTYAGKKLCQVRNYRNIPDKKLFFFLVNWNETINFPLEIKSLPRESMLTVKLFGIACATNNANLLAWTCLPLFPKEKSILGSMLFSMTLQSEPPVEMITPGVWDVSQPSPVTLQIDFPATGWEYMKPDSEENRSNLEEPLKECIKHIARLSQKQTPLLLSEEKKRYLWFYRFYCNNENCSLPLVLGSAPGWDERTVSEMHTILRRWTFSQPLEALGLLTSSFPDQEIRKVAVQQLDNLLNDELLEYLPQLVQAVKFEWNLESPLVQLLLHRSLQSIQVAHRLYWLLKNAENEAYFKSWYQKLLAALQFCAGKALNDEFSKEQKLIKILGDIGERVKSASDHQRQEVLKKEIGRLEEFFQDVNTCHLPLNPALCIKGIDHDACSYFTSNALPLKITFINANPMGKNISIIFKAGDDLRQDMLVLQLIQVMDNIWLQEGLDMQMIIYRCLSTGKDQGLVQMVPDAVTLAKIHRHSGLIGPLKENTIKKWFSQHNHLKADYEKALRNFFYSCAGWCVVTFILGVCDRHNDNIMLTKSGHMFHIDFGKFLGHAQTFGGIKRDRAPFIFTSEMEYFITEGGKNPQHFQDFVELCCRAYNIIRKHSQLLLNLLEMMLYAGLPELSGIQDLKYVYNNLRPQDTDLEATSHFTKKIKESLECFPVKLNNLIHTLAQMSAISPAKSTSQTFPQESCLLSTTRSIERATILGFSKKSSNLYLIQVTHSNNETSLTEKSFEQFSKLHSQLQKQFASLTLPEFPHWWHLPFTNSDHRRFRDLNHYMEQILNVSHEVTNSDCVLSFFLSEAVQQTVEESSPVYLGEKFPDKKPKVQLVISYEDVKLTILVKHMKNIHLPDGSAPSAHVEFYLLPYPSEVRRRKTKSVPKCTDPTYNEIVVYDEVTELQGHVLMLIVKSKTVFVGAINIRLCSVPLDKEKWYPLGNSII
Sequence of HRI(h) (Q9BQI3 whole entry): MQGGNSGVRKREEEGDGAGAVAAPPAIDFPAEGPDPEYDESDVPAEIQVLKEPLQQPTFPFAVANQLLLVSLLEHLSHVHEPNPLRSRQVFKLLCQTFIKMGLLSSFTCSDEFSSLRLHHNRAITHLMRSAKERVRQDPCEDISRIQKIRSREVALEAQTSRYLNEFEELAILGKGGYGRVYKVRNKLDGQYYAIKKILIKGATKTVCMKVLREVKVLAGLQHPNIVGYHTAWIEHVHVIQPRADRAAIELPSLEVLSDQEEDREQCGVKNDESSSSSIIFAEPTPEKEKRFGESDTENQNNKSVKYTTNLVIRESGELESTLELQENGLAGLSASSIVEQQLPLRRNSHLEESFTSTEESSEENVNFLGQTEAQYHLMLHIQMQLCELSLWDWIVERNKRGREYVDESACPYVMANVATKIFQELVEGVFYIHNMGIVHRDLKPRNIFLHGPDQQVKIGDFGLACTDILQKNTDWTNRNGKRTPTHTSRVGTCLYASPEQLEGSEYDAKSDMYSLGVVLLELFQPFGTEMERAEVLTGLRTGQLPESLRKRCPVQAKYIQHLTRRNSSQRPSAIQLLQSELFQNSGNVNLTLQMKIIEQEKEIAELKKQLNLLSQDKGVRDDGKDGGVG
Sequence of DCAMKL3(h) (Q9C098 whole entry, looked up): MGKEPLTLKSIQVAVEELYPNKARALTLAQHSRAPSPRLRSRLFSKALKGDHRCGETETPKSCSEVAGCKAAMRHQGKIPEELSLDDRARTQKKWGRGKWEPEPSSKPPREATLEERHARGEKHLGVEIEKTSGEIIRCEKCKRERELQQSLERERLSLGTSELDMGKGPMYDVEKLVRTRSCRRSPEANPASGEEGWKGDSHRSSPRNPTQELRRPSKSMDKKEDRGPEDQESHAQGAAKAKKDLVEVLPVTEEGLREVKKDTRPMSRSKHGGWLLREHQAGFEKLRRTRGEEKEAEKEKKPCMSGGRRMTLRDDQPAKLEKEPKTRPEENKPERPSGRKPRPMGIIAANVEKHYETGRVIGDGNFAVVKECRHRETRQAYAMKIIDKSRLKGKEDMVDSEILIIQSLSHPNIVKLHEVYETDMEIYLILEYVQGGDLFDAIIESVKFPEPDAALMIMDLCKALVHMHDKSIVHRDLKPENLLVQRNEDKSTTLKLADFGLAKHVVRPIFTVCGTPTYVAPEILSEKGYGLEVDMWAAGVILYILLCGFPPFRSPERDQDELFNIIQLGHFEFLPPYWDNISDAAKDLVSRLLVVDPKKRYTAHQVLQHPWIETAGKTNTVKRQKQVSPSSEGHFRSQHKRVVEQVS
Sequence of TAO3(h) (Q9H2K8 whole entry): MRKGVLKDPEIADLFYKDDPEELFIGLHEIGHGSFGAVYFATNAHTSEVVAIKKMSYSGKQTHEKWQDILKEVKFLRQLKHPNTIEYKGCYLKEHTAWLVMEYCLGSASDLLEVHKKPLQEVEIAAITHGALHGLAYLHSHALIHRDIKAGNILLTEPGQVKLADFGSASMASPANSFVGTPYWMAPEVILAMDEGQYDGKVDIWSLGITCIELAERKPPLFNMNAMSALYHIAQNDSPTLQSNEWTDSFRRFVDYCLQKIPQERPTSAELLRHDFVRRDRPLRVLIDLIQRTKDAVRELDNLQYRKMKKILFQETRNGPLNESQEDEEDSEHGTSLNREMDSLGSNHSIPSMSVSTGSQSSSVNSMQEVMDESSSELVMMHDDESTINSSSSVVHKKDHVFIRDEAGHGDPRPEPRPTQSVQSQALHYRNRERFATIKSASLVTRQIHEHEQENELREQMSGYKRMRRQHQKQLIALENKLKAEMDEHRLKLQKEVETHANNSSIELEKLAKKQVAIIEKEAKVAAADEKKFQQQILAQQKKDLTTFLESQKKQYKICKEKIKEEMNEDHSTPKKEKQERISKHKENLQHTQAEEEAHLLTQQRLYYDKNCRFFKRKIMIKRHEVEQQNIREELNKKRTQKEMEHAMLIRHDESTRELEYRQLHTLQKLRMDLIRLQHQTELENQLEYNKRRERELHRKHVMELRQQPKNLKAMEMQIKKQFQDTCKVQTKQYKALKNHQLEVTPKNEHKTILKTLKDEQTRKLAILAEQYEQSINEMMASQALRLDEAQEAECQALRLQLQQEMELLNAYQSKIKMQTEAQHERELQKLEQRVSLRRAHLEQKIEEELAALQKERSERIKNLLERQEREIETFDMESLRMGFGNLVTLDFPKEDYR
Sequence of SAPK4(h) (O15264 whole entry): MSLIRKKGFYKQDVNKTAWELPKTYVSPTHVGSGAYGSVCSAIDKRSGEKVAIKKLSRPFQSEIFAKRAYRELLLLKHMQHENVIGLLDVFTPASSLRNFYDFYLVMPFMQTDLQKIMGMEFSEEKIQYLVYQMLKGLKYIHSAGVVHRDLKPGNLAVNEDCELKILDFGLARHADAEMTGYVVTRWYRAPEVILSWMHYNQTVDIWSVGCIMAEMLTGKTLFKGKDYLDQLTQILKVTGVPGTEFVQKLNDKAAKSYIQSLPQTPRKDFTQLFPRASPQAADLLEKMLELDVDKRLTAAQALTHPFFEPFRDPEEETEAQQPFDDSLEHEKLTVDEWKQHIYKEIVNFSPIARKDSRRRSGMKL
Sequence of CLK3(h) (P49761 whole entry): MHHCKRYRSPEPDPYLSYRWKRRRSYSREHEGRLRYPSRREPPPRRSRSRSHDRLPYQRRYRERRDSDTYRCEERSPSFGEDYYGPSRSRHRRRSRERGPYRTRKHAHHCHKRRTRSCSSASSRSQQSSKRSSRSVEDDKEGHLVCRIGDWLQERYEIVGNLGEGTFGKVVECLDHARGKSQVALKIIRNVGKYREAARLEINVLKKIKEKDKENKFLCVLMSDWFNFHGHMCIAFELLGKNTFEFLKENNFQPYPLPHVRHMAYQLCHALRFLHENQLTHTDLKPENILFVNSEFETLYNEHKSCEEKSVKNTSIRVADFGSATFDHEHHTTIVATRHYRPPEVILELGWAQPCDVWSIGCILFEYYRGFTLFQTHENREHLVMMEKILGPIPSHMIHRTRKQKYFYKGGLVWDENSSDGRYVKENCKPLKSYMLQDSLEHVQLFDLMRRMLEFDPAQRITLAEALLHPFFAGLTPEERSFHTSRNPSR

SMILES: Cc1cc2c(-c3ccc(NC(=O)[C@H](N)CC(C)(C)C)cc3C)ccnc2[nH]1 [Compound F-90, (2R)-2-Amino-4,4-dimethyl-N-[3-methyl-4-(2-methyl-1H-pyrrolo[2,3-b]pyridin-4-yl)phenyl]pentanamide]
- IC50 [1]: 0.012 µM
- % Activity [2]: 85%
- % Activity [3]: 104%
- % Activity [4]: 88%
- % Activity [5]: 75%
- % Activity [6]: 89%
- % Activity [7]: 107%
- % Activity [8]: 92%
- % Activity [9]: 86%
- % Activity [10]: 92%
- % Activity [11]: 95%
- % Activity [12]: 97%
- % Activity [13]: 84%
- % Activity [14]: 80%
- % Activity [15]: 85%
- % Activity [16]: 103%
- % Activity [17]: 101%
- % Activity [18]: 94%
- % Activity [19]: 105%
- % Activity [20]: 115%
- % Activity [21]: 100%
- % Activity [22]: 100%
- % Activity [23]: 88%
- % Activity [24]: 94%
